PMC10135569, “Does Enhanced Structural Maturity of hiPSC-Cardiomyocytes Better for the Detection of Drug-Induced Cardiotoxicity?” (Biomolecules, 2023)
Entries after “also recorded” stand apart in the source; their conditions may differ. Read-outs that look alike come from different tables or passages of the source.

How the values were obtained:
[1] = test system: hiPSC-CMs (iCell2 Cardiomyocytes) 2D monolayers; test: Membrane potential (action potential) recordings with FluoVolt voltage-sensitive dye on the CellOPTIQ platform; type: cell-based, human; conditions: for effect on APD90: positive control
Experimental: (§1) Cardiomyocytes (FUJIFILM Cellular Dynamics, Madison, WI, USA) were kept at −190 °C and prepared for culture as per the manufacturer’s instructions.
(§2) Standard fibronectin vs. Matrix Plus well coating: The cells were cultured using two different coatings in a humidified incubator at 37 °C with 5% CO2. First, 96-well glass-bottomed plates (MatTek, Ashland, MA) were coated with fibronectin ([…] in PBS supplemented with Ca^2+ and Mg^2+; Sigma, St. Louis, MO, USA) (defining FM). Second, CELLvo^TM Matrix Plus (StemBioSys, San Antonio, TX, USA), which were pre-coated on 96 well glass bottom plates and kept at 4 °C. On the day of plating, CELLvo^TM Matrix Plus plates were transferred to room temperature, rehydrated with phosphate buffer saline (PBS), incubated for 1 h at 37 °C, and washed 2× with PBS. Cells were introduced at a density of 50,000 cells/well to allow the formation of a confluent monolayer in each well (defined as MM). The maintenance protocols followed the manufacturer’s instructions and used the iCell^2 Cardiomyocytes Maintenance media for media changes every 2 days. Experiments were performed between days 5 and 6, as recommended by the manufacturers. Before beginning an experiment, cells were washed in serum-free media (SF media) (Fluorobrite DMEM, Gibco, Thermo Fisher Scientific, Horsham, UK).
(§3) The drug powders were dissolved in DMSO, and four stock concentrations at 1000× the final target concentration were prepared in DMSO. For the experiment, an intermediate concentration 2× the target solution was prepared in SF media. The addition of drugs to the cells was accomplished by replacing 50% of the well volume with the intermediate 2× solution. The same procedure was done for vehicle control using DMSO. The experimental number n = 8/concentration/testing compound in the FM or MM condition, and n = 36 for each positive or negative control in the FM or MM condition.
Cultures of hiPSC-CMs (5–6 days post-plating) were treated with FluoVolt dye (1:1000, Invitrogen, Cat# F10488) in SF media and incubated for 20 min at 37 °C with 5% CO2 and 80% humidity. Multi-well plates were placed in the environmentally controlled stage incubator (37 °C, 5% CO2, water-saturated air atmosphere) (Okolab Inc. Burlingame, CA) of the CellOPTIQ® platform (Clyde Biosciences Ltd., Glasgow, Scotland). The FluoVolt signal was recorded from a 0.2 mm × 0.2 mm area using a 40× (numerical aperture: NA 0.6) Excitation wavelength was 470 ± 10 nm using a light-emitting diode (LED), and emitted light was collected by two photomultipliers (PMTs) at 510–560 nm (channel 1) and 590–650 nm (channel 2), respectively. LED, PMT, and associated power supplies and amplifiers were supplied by Cairn Research Ltd. (Kent, UK) and digitized at 10 kHz and stored on a computer hard drive. In the case of FluoVolt-based action potential recordings, the short wavelength (channel 1, […]) was analyzed for action potential features.
(§4) The dye FluoVolt is loaded into the surface membrane (outer leaflet), and the dye remains within the membrane for many dots, allowing intermittent voltage measurements over the experimental period. In this study, measurements were restricted to within 30 mins of application of the drug. The measurements were made on the same area before/after drug/DMSO addition. […] Baseline spontaneous electrical activity and the associated contractility signal were recorded by capturing 10 s segments of fluorescent signal and video for 2D plates and 15 s for organoids from each well prior to compound addition. Drugs were tested at four concentrations in n = 8 independent replicates (i.e., 8 wells from a single plating) at each concentration. A vehicle control was included for each drug. A 10 s or 15 s recording was then taken 30 min after exposure to the drug or vehicle with only one concentration applied/well.

[2] = test system: hiPSC-CMs (iCell2 Cardiomyocytes) 2D monolayers; test: Contractility measurements using video imaging (ContractilityTool / MUSCLEMOTION); type: cell-based, human
Experimental: as §1, §2, §3
as §4, with “applied/well. Offline analysis was performed using proprietary software (CellOPTIQ®).” for “applied/well.”
Short periods (10 s or 15 s) of video were analyzed using the ContractilityTool application (developed by F.L. Burton), which is an implementation of the MUSCLEMOTION algorithm.

[3] = listed in Supplementary Table S1; no reference given; cited from earlier work
[4] = range of concentrations, negative control, FM and MM
[5] = FM monolayer, 0.01 µM, 30 min, delta over DMSO 0.1%
[6] = FM monolayer, 0.1 µM, 30 min, delta over DMSO 0.1%
[7] = FM monolayer, 0.3 µM, 30 min, delta over DMSO 0.1%
[8] = FM monolayer, 1 µM, 30 min, delta over DMSO 0.1%
[9] = MM monolayer, 0.01 µM, 30 min, delta over DMSO 0.1%
[10] = MM monolayer, 0.1 µM, 30 min, delta over DMSO 0.1%
[11] = MM monolayer, 0.3 µM, 30 min, delta over DMSO 0.1%
[12] = MM monolayer, 1 µM, 30 min, delta over DMSO 0.1%

Compound: O=C(O)COCCN1CCN(C(c2ccccc2)c2ccc(Cl)cc2)CC1 (centres unmarked) [Cetirizine]
- activity at 0.1 µM ([1]; Homo sapiens, Cardiomyocyte, 0.5 h, FM monolayer, 0.1 µM, 30 min, delta over DMSO 0.1%, read-out: Trise (%DD)): 154 ± 32.6%
- activity at 0.3 µM ([1]; Homo sapiens, Cardiomyocyte, 0.5 h, FM monolayer, 0.3 µM, 30 min, delta over DMSO 0.1%, read-out: Trise (%DD)): 127 ± 16.8%
- activity at 3 µM ([1]; Homo sapiens, Cardiomyocyte, 0.5 h, FM monolayer, 3 µM, 30 min, delta over DMSO 0.1%, read-out: Trise (%DD)): 122 ± 8.8%
- activity at 0.1 µM ([1]; Homo sapiens, Cardiomyocyte, 0.5 h, MM monolayer, 0.1 µM, 30 min, delta over DMSO 0.1%, read-out: Trise (%DD)): 146 ± 16.9%
- change in the voltage parameters [1, 4]: No change
- activity at 0.1 µM ([2]; Homo sapiens, Cardiomyocyte, 0.5 h, FM monolayer, 0.1 µM, 30 min, delta over DMSO 0.1%, read-out: CtAmp (%DD)): 72 ± 13.3%
- activity at 0.3 µM ([2]; Homo sapiens, Cardiomyocyte, 0.5 h, FM monolayer, 0.3 µM, 30 min, delta over DMSO 0.1%, read-out: CtAmp (%DD)): 87 ± 14.6%
- activity at 1 µM ([2]; Homo sapiens, Cardiomyocyte, 0.5 h, FM monolayer, 1 µM, 30 min, delta over DMSO 0.1%, read-out: CtAmp (%DD)): 129 ± 32.9%
- activity at 1 µM ([2]; Homo sapiens, Cardiomyocyte, 0.5 h, MM monolayer, 1 µM, 30 min, delta over DMSO 0.1%, read-out: CtAmp (%DD)): 118 ± 14.2%
- activity at 3 µM ([2]; Homo sapiens, Cardiomyocyte, 0.5 h, MM monolayer, 3 µM, 30 min, delta over DMSO 0.1%, read-out: CtAmp (%DD)): 87 ± 5.3%
- change in the contractility parameters [2, 4]: No change

Compound: CN(CCOc1ccc(NS(C)(=O)=O)cc1)CCc1ccc(NS(C)(=O)=O)cc1 [Dofetilide]
- effect on APD90 ([1]; 10 nM, both 2D models): significantly prolonged
- Free Cmax [3]: 2.7 nM

Compound: COC(=O)C1=C(C)NC(C)=C(C(=O)OC)C1c1ccccc1[N+](=O)[O-] [Nifedipine]
- effect on APD90 ([1]; 100 nM, 2D monolayers on fibronectin and Matrix Plus): shortened; also recorded: reduced
- effect on duration of contraction ([2]; 100 nM, 2D monolayers on fibronectin and Matrix Plus, positive control): shortened; also recorded: reduced

Compound: COCCOC(=O)C1=C(C)NC(C)=C(C(=O)OC(C)C)C1c1cccc([N+](=O)[O-])c1 (centres unmarked) [Nimodipine]
- Free Cmax [3]: 69 nM

Compound: NC(=Nc1ccc(OCCCCCOc2ccc(N=C(N)c3ccccc3)cc2)cc1)c1ccccc1 [PA-6]
- APD30 (%DD) [1, 5]: 108±3.6 %DD
- APD90 (%DD) [1, 5]: 104±1.1 %DD
- CL (%DD) [1, 5]: 101±0.8 %DD
- Trise (%DD) [1, 5]: 101±17.4 %DD
- APD30 (%DD) [1, 6]: 99±3 %DD
- APD90 (%DD) [1, 6]: 107±1.4 %DD
- CL (%DD) [1, 6]: 98±2.3 %DD
- Trise (%DD) [1, 6]: 70±6.1 %DD
- APD30 (%DD) [1, 7]: 105±2.4 %DD
- APD90 (%DD) [1, 7]: 111±0.8 %DD
- CL (%DD) [1, 7]: 101±2.5 %DD
- Trise (%DD) [1, 7]: 89±10.8 %DD
- APD30 (%DD) [1, 8]: 110±1.3 %DD
- APD90 (%DD) [1, 8]: 116±1.3 %DD
- CL (%DD) [1, 8]: 108±1.4 %DD
- Trise (%DD) [1, 8]: 128 ± 15.8 %DD
- APD30 (%DD) [1, 9]: 107±1.9 %DD
- APD90 (%DD) [1, 9]: 103±1.5 %DD
- CL (%DD) [1, 9]: 97±0.7 %DD
- Trise (%DD) [1, 9]: 119±25.1 %DD
- APD30 (%DD) [1, 10]: 105±1 %DD
- APD90 (%DD) [1, 10]: 111±2.2 %DD
- CL (%DD) [1, 10]: 100±0.5 %DD
- Trise (%DD) [1, 10]: 74±17.9 %DD
- APD30 (%DD) [1, 11]: 107±1.9 %DD
- APD90 (%DD) [1, 11]: 111±1 %DD
- CL (%DD) [1, 11]: 102±0.8 %DD
- Trise (%DD) [1, 11]: 96±12.7 %DD
- APD30 (%DD) [1, 12]: 107±1.5 %DD
- APD90 (%DD) [1, 12]: 111±1.7 %DD
- CL (%DD) [1, 12]: 108±2.4 %DD
- Trise (%DD) [1, 12]: 138±14.2 %DD
- effect on APD90 (in words) ([1]; both FM and MM monolayers, concentration not given): mild APD90 prolongation
- effect of selective Kir2.1 channel block ([1]; both experimental groups): lack of effect
- CtAmp (%DD) [2, 5]: 103±8.8 %DD
- CtD50 (%DD) [2, 5]: 104±1.7 %DD
- CtAmp (%DD) [2, 6]: 111±14.2 %DD
- CtD50 (%DD) [2, 6]: 105±1.8 %DD
- CtAmp (%DD) [2, 7]: 105±10.2 %DD
- CtD50 (%DD) [2, 7]: 106±2.1 %DD
- CtAmp (%DD) [2, 8]: 111 ± 8.1 %DD
- CtD50 (%DD) [2, 8]: 112±2.5 %DD
- CtAmp (%DD) [2, 9]: 127±13 %DD
- CtD50 (%DD) [2, 9]: 101±1.3 %DD
- CtAmp (%DD) [2, 10]: 99±11.2 %DD
- CtD50 (%DD) [2, 10]: 103±1.1 %DD
- CtAmp (%DD) [2, 11]: 135±22.2 %DD
- CtD50 (%DD) [2, 11]: 105±1.9 %DD
- CtAmp (%DD) [2, 12]: 114±9.8 %DD
- CtD50 (%DD) [2, 12]: 107±1.2 %DD

Compound: CC(=O)OCC[N+](C)(C)C [acetylcholine]
- effect on beating rate / spontaneous rate (in words) ([1]; both FM and MM, concentration not given): decrease
- changes in the APD ([1]; both groups (FM and MM)): < 10%
